From publication PMC5218480 (PLoS ONE, 2017) come the findings set out here.

The experiment has as its system MV-4-11 cells. The experiment is described as follows: Gene expression microarray analysis (Affymetrix PrimeView) and GSEA. Type of experiment: cell-based, human. Details: RFU PODN (11730768_x_at) / Fold change /veh PODN (11730768_x_at) / RFU LINC00158 (11744669_a_at) / Fold change /veh LINC00158 (11744669_a_at) / RFU DUSP10 (11751237_a_at) / Fold change /veh DUSP10 (11751237_a_at) / RFU ID3 (11757404_x_at) / Fold change /veh ID3 (11757404_x_at) / RFU PLEKHG5 (11737974_s_at) / Fold change /veh PLEKHG5 (11737974_s_at) / RFU LRRC4B (11730491_at) / Fold change /veh LRRC4B (11730491_at) / RFU GIMAP4 (11747438_a_at) / Fold change /veh GIMAP4 (11747438_a_at) / RFU KRT8 (11758183_x_at) / Fold change /veh KRT8 (11758183_x_at) / RFU CNN1 (11734310_a_at) / Fold change /veh CNN1 (11734310_a_at) / RFU VPS37D (11726825_at) / Fold change /veh VPS37D (11726825_at) / RFU C10orf10 (11716522_x_at) / Fold change /veh C10orf10 (11716522_x_at) / RFU KIR2DL2 /// KIR2DL4 /// KIR2DL5A /// KIR2DL5B /// KIR2DS1 /// KIR2DS2 /// KIR2DS3 /// KIR2DS4 /// KIR3DL3 /// KIR3DL3 /// KIR3DS1 (11738374_at) / Fold change /veh KIR2DL2 /// KIR2DL4 /// KIR2DL5A /// KIR2DL5B /// KIR2DS1 /// KIR2DS2 /// KIR2DS3 /// KIR2DS4 /// KIR3DL3 /// KIR3DL3 /// KIR3DS1 (11738374_at) / RFU C1QL1 (11718748_at) / Fold change /veh C1QL1 (11718748_at) / RFU TMPRSS4 (11747572_a_at) / Fold change /veh TMPRSS4 (11747572_a_at) / RFU HAMP (11756126_x_at) / Fold change /veh HAMP (11756126_x_at) / RFU RNFT2 (11725882_a_at) / Fold change /veh RNFT2 (11725882_a_at) / RFU NR4A2 (11747474_a_at) / Fold change /veh NR4A2 (11747474_a_at) / RFU ABCC12 (11746883_a_at) / Fold change /veh ABCC12 (11746883_a_at) / RFU TMEM136 (11760407_x_at) / Fold change /veh TMEM136 (11760407_x_at) / RFU CLDN22 /// WWC2 (11732394_at) / Fold change /veh CLDN22 /// WWC2 (11732394_at) / RFU HLA-DPB1 (11760878_x_at) / Fold change /veh HLA-DPB1 (11760878_x_at) / RFU SPINT1 (11716480_a_at) / Fold change /veh SPINT1 (11716480_a_at) / RFU GAP43 (11754022_s_at) / Fold change /veh GAP43 (11754022_s_at) / RFU A4GNT (11735810_at) / Fold change /veh A4GNT (11735810_at) / RFU PRB3 (11715151_x_at) / Fold change /veh PRB3 (11715151_x_at) / RFU TUBB4B (11761932_at) / Fold change /veh TUBB4B (11761932_at) / RFU CAPN14 (11732068_a_at) / Fold change /veh CAPN14 (11732068_a_at) / RFU TMCC2 (11721928_a_at) / Fold change /veh TMCC2 (11721928_a_at) / RFU IRGQ (11745062_a_at) / Fold change /veh IRGQ (11745062_a_at) / RFU FAM174B (11720279_a_at) / Fold change /veh FAM174B (11720279_a_at) / RFU TMPRSS4 (11748680_a_at) / Fold change /veh TMPRSS4 (11748680_a_at) / RFU FAM212B (11763350_a_at) / Fold change /veh FAM212B (11763350_a_at) / RFU PLEKHG5 (11743358_a_at) / Fold change /veh PLEKHG5 (11743358_a_at) / RFU ZSCAN30 (11745921_a_at) / Fold change /veh ZSCAN30 (11745921_a_at) / RFU CMKLR1 (11741424_a_at) / Fold change /veh CMKLR1 (11741424_a_at) / RFU LOC101060620 /// MAPK8IP1 (11723275_at) / Fold change /veh LOC101060620 /// MAPK8IP1 (11723275_at) / RFU SPTSSB (11747773_x_at) / Fold change /veh SPTSSB (11747773_x_at) / RFU PRSS12 (11739890_at) / Fold change /veh PRSS12 (11739890_at) / RFU BIN1 (11741810_x_at) / Fold change /veh BIN1 (11741810_x_at) / RFU WNT11 (11732464_a_at) / Fold change /veh WNT11 (11732464_a_at) / RFU C10orf10 (11716521_a_at) / Fold change /veh C10orf10 (11716521_a_at) / RFU C5orf56 (11738089_at) / Fold change /veh C5orf56 (11738089_at) / RFU CYB561 (11721691_x_at) / Fold change /veh CYB561 (11721691_x_at) / RFU ANKRD19P (11752326_a_at) / Fold change /veh ANKRD19P (11752326_a_at) / RFU OR2T12 /// OR2T33 /// OR2T8 (11738714_s_at) / Fold change /veh OR2T12 /// OR2T33 /// OR2T8 (11738714_s_at) / RFU VCAN (11748164_a_at) / Fold change /veh VCAN (11748164_a_at) / RFU JSRP1 (11732532_at) / Fold change /veh JSRP1 (11732532_at) / RFU KRTAP10-11 (11738290_x_at) / Fold change /veh KRTAP10-11 (11738290_x_at) / RFU MYO3A (11730013_a_at) / Fold change /veh MYO3A (11730013_a_at) / RFU EBF3 (11725865_a_at) / Fold change /veh EBF3 (11725865_a_at) / RFU CAMK2N1 (11719241_x_at) / Fold change /veh CAMK2N1 (11719241_x_at) / RFU C5orf56 (11738088_a_at) / Fold change /veh C5orf56 (11738088_a_at) / RFU OLFML3 (11715873_a_at) / Fold change /veh OLFML3 (11715873_a_at) / RFU LOC100653217 /// NTM (11731650_a_at) / Fold change /veh LOC100653217 /// NTM (11731650_a_at) / RFU MAPK11 (11762145_a_at) / Fold change /veh MAPK11 (11762145_a_at) / RFU FIZ1 (11724087_x_at) / Fold change /veh FIZ1 (11724087_x_at) / RFU OASL (11726364_x_at) / Fold change /veh OASL (11726364_x_at) / RFU SOX15 (11748057_x_at) / Fold change /veh SOX15 (11748057_x_at) / RFU CD79A (11719716_a_at) / Fold change /veh CD79A (11719716_a_at) / RFU HIST1H1D (11736915_at) / Fold change /veh HIST1H1D (11736915_at) / RFU CASKIN2 (11723855_a_at) / Fold change /veh CASKIN2 (11723855_a_at) / RFU LOC730098 (11760151_x_at) / Fold change /veh LOC730098 (11760151_x_at) / RFU OR4N2 (11742367_at) / Fold change /veh OR4N2 (11742367_at) / RFU PRRT2 (11749266_a_at) / Fold change /veh PRRT2 (11749266_a_at) / RFU SNX32 (11753110_a_at) / Fold change /veh SNX32 (11753110_a_at) / RFU CDHR5 (11726645_a_at) / Fold change /veh CDHR5 (11726645_a_at) / RFU RCAN1 (11760418_a_at) / Fold change /veh RCAN1 (11760418_a_at) / RFU FAM167A (11723789_a_at) / Fold change /veh FAM167A (11723789_a_at) / RFU FAM26E (11764081_at) / Fold change /veh FAM26E (11764081_at) / RFU ISYNA1 (11749810_s_at) / Fold change /veh ISYNA1 (11749810_s_at) / RFU ACY1 (11761880_at) / Fold change /veh ACY1 (11761880_at) / RFU 11764098_at / Fold change /veh 11764098_at / RFU SAMD14 (11745864_x_at) / Fold change /veh SAMD14 (11745864_x_at) / RFU NPB (11741838_a_at) / Fold change /veh NPB (11741838_a_at) / RFU TMPRSS6 (11731388_a_at) / Fold change /veh TMPRSS6 (11731388_a_at) / RFU KRTAP10-2 (11738614_at) / Fold change /veh KRTAP10-2 (11738614_at) / RFU ARHGAP8 /// PRR5-ARHGAP8 (11727945_x_at) / Fold change /veh ARHGAP8 /// PRR5-ARHGAP8 (11727945_x_at) / RFU KRTAP5-7 /// NADSYN1 (11734609_at) / Fold change /veh KRTAP5-7 /// NADSYN1 (11734609_at) / RFU RASL12 (11751679_a_at) / Fold change /veh RASL12 (11751679_a_at) / RFU CDKN2B (11736163_a_at) / Fold change /veh CDKN2B (11736163_a_at) / RFU PRF1 (11729649_at) / Fold change /veh PRF1 (11729649_at) / RFU, ZNF638 /// ZNF638-IT1 / Fold change vs veh, ZNF638 /// ZNF638-IT1 / RFU, PANK3 / Fold change vs veh, PANK3 / RFU, SH3YL1 / Fold change vs veh, SH3YL1 / RFU, ZEB2 / Fold change vs veh, ZEB2 / RFU, NRIP1 / Fold change vs veh, NRIP1 / RFU, PTTG1IP / Fold change vs veh, PTTG1IP / RFU, CAPN2 / Fold change vs veh, CAPN2 / RFU, MED14 / Fold change vs veh, MED14 / RFU, SNORA58 / Fold change vs veh, SNORA58 / RFU, C1orf63 / Fold change vs veh, C1orf63 / RFU, LRRFIP1 / Fold change vs veh, LRRFIP1 / RFU, NDUFAF7 / Fold change vs veh, NDUFAF7 / RFU, SLC12A2 / Fold change vs veh, SLC12A2 / RFU, IBTK / Fold change vs veh, IBTK / RFU, ESF1 / Fold change vs veh, ESF1 / Fold change vs veh, TMEM50B / RFU, TAOK1 / Fold change vs veh, TAOK1 / RFU, ACBD3 / Fold change vs veh, ACBD3 / RFU, TMA16 / Fold change vs veh, TMA16 / RFU, RWDD3 / Fold change vs veh, RWDD3 / RFU, BCAT1 / Fold change vs veh, BCAT1 / RFU, EDEM3 / Fold change vs veh, EDEM3 / RFU, TMEM33 / Fold change vs veh, TMEM33 / RFU, WDR75 / Fold change vs veh, WDR75 / RFU, AHCTF1 / Fold change vs veh, AHCTF1 / RFU, TFRC / Fold change vs veh, TFRC / RFU, ZDHHC17 / Fold change vs veh, ZDHHC17 / RFU, NOM1 / Fold change vs veh, NOM1 / RFU, ARL8B / Fold change vs veh, ARL8B / RFU, ZBTB11 / Fold change vs veh, ZBTB11 / RFU, TAMM41 / Fold change vs veh, TAMM41 / RFU, KIAA1704 /// LOC100996395 / Fold change vs veh, KIAA1704 /// LOC100996395 / RFU, ING1 / Fold change vs veh, ING1 / RFU, TRMT61B / Fold change vs veh, TRMT61B / RFU, FUBP3 / Fold change vs veh, FUBP3 / RFU, TP53 / Fold change vs veh, TP53 / RFU, TNKS2 / Fold change vs veh, TNKS2 / RFU, ZFP14 / Fold change vs veh, ZFP14 / RFU, ACTR2 / Fold change vs veh, ACTR2 / RFU, PPP3R1 / Fold change vs veh, PPP3R1 / RFU, PIK3R1 / Fold change vs veh, PIK3R1 / RFU, HNRNPA1 / Fold change vs veh, HNRNPA1 / RFU, RNF170 / Fold change vs veh, RNF170 / RFU, ZNF28 / Fold change vs veh, ZNF28 / RFU, RNGTT / Fold change vs veh, RNGTT / RFU, OGT / Fold change vs veh, OGT / RFU, BRD1 / Fold change vs veh, BRD1 / RFU, MARS / Fold change vs veh, MARS / RFU, ZNF655 / Fold change vs veh, ZNF655 / RFU, FAHD1 / Fold change vs veh, FAHD1 / RFU, BDP1 / Fold change vs veh, BDP1 / RFU, LRRCC1 / Fold change vs veh, LRRCC1 / RFU, ARID1A / Fold change vs veh, ARID1A / RFU, ZNF146 / Fold change vs veh, ZNF146 / RFU, ZNF330 / Fold change vs veh, ZNF330 / RFU, GPN3 / Fold change vs veh, GPN3 / RFU, C9orf123 / Fold change vs veh, C9orf123 / RFU, N4BP2L2 / Fold change vs veh, N4BP2L2 / RFU, ARFIP1 / Fold change vs veh, ARFIP1 / RFU, FAM179B / Fold change vs veh, FAM179B / RFU, BCL10 / Fold change vs veh, BCL10 / RFU, UHRF1BP1L / Fold change vs veh, UHRF1BP1L / RFU, BET1 / Fold change vs veh, BET1 / RFU, CNOT2 / Fold change vs veh, CNOT2 / RFU, ZNF268 / Fold change vs veh, ZNF268 / Fold change vs veh, ZNF507 / RFU, DGCR2 / Fold change vs veh, DGCR2 / RFU, WDSUB1 / Fold change vs veh, WDSUB1 / Fold change vs veh, HSP90B1 /// MIR3652 / RFU, ADSS / Fold change vs veh, ADSS / RFU, GK / Fold change vs veh, GK / RFU, ZNF148 / Fold change vs veh, ZNF148 / RFU, TAF9 / Fold change vs veh, TAF9 / RFU, SLC1A5 / Fold change vs veh, SLC1A5 / RFU, SLMO2 / Fold change vs veh, SLMO2 / RFU, ABCC4 / Fold change vs veh, ABCC4 / RFU, LOC101060439 /// RAP1B / Fold change vs veh, LOC101060439 /// RAP1B / RFU, RFX7 / Fold change vs veh, RFX7 / RFU, GTPBP10 / Fold change vs veh, GTPBP10 / RFU, CNEP1R1 / Fold change vs veh, CNEP1R1 / RFU, BIVM-ERCC5 /// ERCC5 / Fold change vs veh, BIVM-ERCC5 /// ERCC5 / RFU, ILF3 / Fold change vs veh, ILF3 / RFU 11762660_at / Fold change /veh 11762660_at / RFU VCAN (11757783_s_at) / Fold change /veh VCAN (11757783_s_at) / RFU DDX43 (11728927_at) / Fold change /veh DDX43 (11728927_at) / RFU KRT8 (11758188_x_at) / Fold change /veh KRT8 (11758188_x_at) / RFU NKD1 (11759106_at) / Fold change /veh NKD1 (11759106_at) / RFU SRD5A1 (11742802_a_at) / Fold change /veh SRD5A1 (11742802_a_at) / RFU TPSAB1 /// TPSB2 (11721975_s_at) / Fold change /veh TPSAB1 /// TPSB2 (11721975_s_at) / RFU GSTM3 (11746129_a_at) / Fold change /veh GSTM3 (11746129_a_at) / RFU IL23R (11737362_x_at) / Fold change /veh IL23R (11737362_x_at) / RFU TMEM51 (11727254_a_at) / Fold change /veh TMEM51 (11727254_a_at) / RFU PIWIL2 (11732686_x_at) / Fold change /veh PIWIL2 (11732686_x_at) / RFU ORM1 (11744905_x_at) / Fold change /veh ORM1 (11744905_x_at) / RFU CCDC152 (11743942_at) / Fold change /veh CCDC152 (11743942_at) / RFU ECM1 (11717891_a_at) / Fold change /veh ECM1 (11717891_a_at) / RFU IL23R (11748794_a_at) / Fold change /veh IL23R (11748794_a_at) / RFU TNFAIP8L3 (11732012_x_at) / Fold change /veh TNFAIP8L3 (11732012_x_at) / RFU MBOAT4 (11741988_at) / Fold change /veh MBOAT4 (11741988_at) / RFU 11764193_at / Fold change /veh 11764193_at / RFU TMEM53 (11763286_at) / Fold change /veh TMEM53 (11763286_at) / RFU MAGEB2 (11727129_at) / Fold change /veh MAGEB2 (11727129_at) / RFU TMEM200A (11744735_a_at) / Fold change /veh TMEM200A (11744735_a_at) / RFU CCDC152 (11751479_a_at) / Fold change /veh CCDC152 (11751479_a_at) / RFU FAM211A (11726209_a_at) / Fold change /veh FAM211A (11726209_a_at) / RFU RGS16 (11746705_a_at) / Fold change /veh RGS16 (11746705_a_at) / RFU VCAN (11755009_s_at) / Fold change /veh VCAN (11755009_s_at) / RFU RHOB (11743442_s_at) / Fold change /veh RHOB (11743442_s_at) / RFU RGS16 (11720943_a_at) / Fold change /veh RGS16 (11720943_a_at) / RFU RGS16 (11720944_at) / Fold change /veh RGS16 (11720944_at) / RFU, VPS4B / Fold change vs veh, VPS4B / RFU, CREB1 / Fold change vs veh, CREB1 / RFU, DNAJC13 / Fold change vs veh, DNAJC13 / RFU, GNAQ / Fold change vs veh, GNAQ / RFU, CDK5R1 / Fold change vs veh, CDK5R1 / RFU, ZRANB3 / Fold change vs veh, ZRANB3 / RFU, CUL4A / Fold change vs veh, CUL4A / RFU, CCNY / Fold change vs veh, CCNY / RFU, UFL1 / Fold change vs veh, UFL1 / RFU, COG3 / Fold change vs veh, COG3 / RFU, DIAPH2 / Fold change vs veh, DIAPH2 / RFU, SKA2 / Fold change vs veh, SKA2 / RFU, AFF3 / Fold change vs veh, AFF3 / RFU, LMF1 / Fold change vs veh, LMF1 / RFU, IPO11 / Fold change vs veh, IPO11 / RFU, DFFB / Fold change vs veh, DFFB / RFU, FOXP1 / Fold change vs veh, FOXP1 / RFU, CARD8 / Fold change vs veh, CARD8 / RFU, STRN3 / Fold change vs veh, STRN3 / RFU, ADK / Fold change vs veh, ADK / RFU, RASSF2 / Fold change vs veh, RASSF2 / RFU, WIPF1 / Fold change vs veh, WIPF1 / RFU, LARP1B / Fold change vs veh, LARP1B / RFU, RASA1 / Fold change vs veh, RASA1 / RFU, RB1 / Fold change vs veh, RB1 / RFU, PPFIA1 / Fold change vs veh, PPFIA1 / RFU, MAT2A / Fold change vs veh, MAT2A / RFU, CCT5 / Fold change vs veh, CCT5 / RFU, WDR92 / Fold change vs veh, WDR92 / RFU, CUX1 / Fold change vs veh, CUX1 / RFU, TTC7A / Fold change vs veh, TTC7A / RFU, TMEM135 / Fold change vs veh, TMEM135 / RFU, DEPTOR / Fold change vs veh, DEPTOR / RFU, CPM / Fold change vs veh, CPM / RFU, DNAJB6 / Fold change vs veh, DNAJB6 / RFU, CACNA2D3 / Fold change vs veh, CACNA2D3 / RFU, DTX4 / Fold change vs veh, DTX4 / RFU, TFCP2 / Fold change vs veh, TFCP2 / RFU, GMCL1 /// GMCL1P1 / Fold change vs veh, GMCL1 /// GMCL1P1 / RFU, AEBP2 / Fold change vs veh, AEBP2 / RFU, SNHG1 /// SNORD22 /// SNORD25 /// SNORD26 /// SNORD27 /// SNORD28 /// SNORD29 /// SNORD31 / Fold change vs veh, SNHG1 /// SNORD22 /// SNORD25 /// SNORD26 /// SNORD27 /// SNORD28 /// SNORD29 /// SNORD31 / Fold change (Aza/veh), C12orf56 (ProbeSet 11735607_a_at) / Fold change (ACY-1035/veh), C12orf56 (ProbeSet 11735607_a_at) / Fold change (Aza/veh), FGFR1OP (ProbeSet 11751329_s_at) / Fold change (ACY-1035/veh), FGFR1OP (ProbeSet 11751329_s_at) / Fold change (Aza/veh), VPS36 (ProbeSet 11739960_a_at) / Fold change (ACY-1035/veh), VPS36 (ProbeSet 11739960_a_at) / RFU SYPL1 (11715823_x_at) / Fold change /veh SYPL1 (11715823_x_at) / RFU IGFBP7 (11715501_s_at) / Fold change /veh IGFBP7 (11715501_s_at) / RFU REEP3 (11722064_at) / Fold change /veh REEP3 (11722064_at) / RFU IGLL1 (11728026_x_at) / Fold change /veh IGLL1 (11728026_x_at): dose or concentration left out as unconfirmed. Conditions: ProbeSet 11728676_at; LIST B.

Molecules are shown by their SMILES.

`Nc1ncn([C@@H]2O[C@H](CO)[C@@H](O)[C@H]2O)c(=O)n1` [azacitidine]: the “RFU, MED14” value turned out to be 205.61 RFU.
